# Assays:
# SETVI (green foxtail) = assay: Pre-emergence herbicidal activity, cool season; assay type: in vivo, Setaria viridis; conditions: GR80 = lowest tested rate (300, 100, 30, 10 g/ha) with 80% or greater inhibition; approx. 14 days after treating; 18/13° C.
# How it was run: (§1)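 GR80 values derive from percent inhibition relative to untreated plants, read roughly 14 days after sowing and pre-emergence soil-surface treatment (compound in 50:50 acetone/water; rates typically 10, 30, 100, 300 g/ha). Warm-season weeds grew at 30/21° C day/night, cool-season ones at 18/13° C; an asterisk marks activity without reaching 80% at the highest rate.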
# LOLMG (annual ryegrass) = assay: Pre-plant incorporated (PPI) herbicidal activity, cool season; assay type: in vivo, Lolium multiflorum
# Description: (§2) In another set of tests, the pre-plant incorporated (PPI) activity of compounds of this invention was evaluated on the same species as for the pre-emergence tests described above. In the PPI tests the following procedure, designed to simulate PPI application, was used.
# (§3) A pre-prepared topsoil mixture (described above) was placed in a pot and compacted to a depth of 1.0 to 1.25 cm from the top of the pot. Seeds of each of several monocotyledonous and dicotyledonous annual plant species were placed on top of the soil. A sufficient quantity of soil to cover the seeds and level fill the pot was weighed into an open container. A known amount of the test compound was dissolved or suspended in an organic solvent and applied by spraying to this cover soil. The cover soil was thoroughly mixed to distribute the test compound throughout the cover soil, and was then applied as a cover layer over the seeds. Untreated soil was used as a cover layer for control pots. After treatment the plants were placed in a greenhouse where they received 0.64 cm of overhead irrigation. All subsequent watering consisted of a light overhead mist and/or subirrigation as needed for germination and growth. Tables 9 and 10 below relate to warm season plant species which were placed after pre-emergence treatment in a greenhouse with a 30/21° C. day/night temperature regime. Tables 11 and 12 below relates to cool season plant species placed after pre-emergence treatment in a greenhouse or growth chamber with an 18/13° C. day/night temperature regime. Only the compounds of Examples 1, 6, 8, 11, 13 and 15-20 were included in PPI tests.
# (§4) Approximately 14 days after planting and treating, the plants were observed and herbicidal efficacy recorded as percent inhibition by comparison with untreated plants.
# XANST (cocklebur) = assay: Pre-plant incorporated (PPI) herbicidal activity, warm season; assay type: in vivo, Xanthium strumarium; conditions: PPI application
# Description: as §2, §3, §4
# [1] = system: PANMI (wild proso millet); assay: as above; assay type: in vivo, Panicum miliaceum
# Description: as §2, §3, §4
# wheat (TRZAW) = assay: Selectivity test, PPI, cool season crop; assay type: in vivo, Triticum aestivum; conditions: PPI application
# Description: as §3, §4
# Additional pre-emergence and PPI tests were conducted by the procedures described above, on warm and cool season weed species in the presence of crop species, to assess herbicidal selectivity. Crop species included in warm season tests were corn (Zea mays, ZEAMX), rice (Oryza sativa, ORYSA) and soybean (Glycine max, GLYMX). Crop species included in cool season tests were wheat (Triticum aestivum, TRZAW), barley (Hordeunm vulgare, HORVX) and oilseed rape (Brassica napus, BRSNS).
# Tables 15 and 16 relate to pre-emergence and PPI tests respectively on warm season species. Table 17 relates to pre-emergence tests on cool season species.
# [2] = system: LAMPU (purple deadnettle); assay: Pre-emergence herbicidal activity, cool season; assay type: in vivo, Lamium purpureum; conditions: lowest tested rate with 80% or greater inhibition; rates 300, 100, 30, 10 g/ha; about 14 days
# How it was run: as §1
# AMARE (redroot pigweed) = assay: Pre-plant incorporated (PPI) herbicidal activity, warm season; assay type: in vivo, Amaranthus retroflexus
# Description: as §2, §3, §4
# [3] = system: AGSST (creeping bentgrass); assay: Pre-emergence herbicidal activity, cool season; assay type: in vivo, Agrostis stolonifera; conditions: GR80 = lowest tested rate (300, 100, 30, 10 g/ha) with 80% or greater inhibition; approx. 14 days after treating; 18/13° C.
# How it was run: as §1
# SINAR (wild mustard) = assay: Pre-emergence herbicidal activity, cool season; assay type: in vivo, Sinapis arvensis; conditions: lowest tested rate with 80% or greater inhibition; rates 300, 100, 30, 10 g/ha; about 14 days
# How it was run: as §1
# [4] = system: CHEAL (common lambsquarters); assay: Pre-plant incorporated (PPI) herbicidal activity, warm season; assay type: in vivo, Chenopodium album; conditions: for Percent inhibition CHEAL: PPI application
# Description: as §2, §3, §4
# [5] = system: AEGCY (jointed goatgrass); assay: Pre-plant incorporated (PPI) herbicidal activity, cool season; assay type: in vivo, Aegilops cylindrica
# Description: as §2, §3, §4
# [6] = pre-plant incorporated, lowest tested rate with 80% or greater inhibition, about 14 days
# [7] = pre-plant incorporated, GR80 = lowest tested rate with 80% or greater inhibition, approx. 14 days after treating, 30/21° C.
# [8] = weed, PPI application, 100 g/ha
# [9] = weed, PPI application, 300 g/ha
# [10] = weed, PPI application, 900 g/ha
smiles,measurement,setting,value
"CCN(CC)C(=O)n1cnc(S(=O)(=O)C(F)(F)Br)n1 [Example 1, 3-(bromodifluoromethylsulfonyl)-1-(N,N-diethylcarbamoyl)-1,2,4-triazole]",Pre-emergence activity (GR80) SETVI,SETVI (green foxtail),30 g/ha
same,inhibition at 30 g/ha,"LOLMG (annual ryegrass); Lolium multiflorum, weed, PPI application, 30 g/ha, read-out: Percent inhibition LOLMG",95%
same,inhibition at 100 g/ha,"LOLMG (annual ryegrass); Lolium multiflorum, weed, PPI application, 100 g/ha, read-out: Percent inhibition LOLMG",95%
same,inhibition at 300 g/ha,"LOLMG (annual ryegrass); Lolium multiflorum, weed, PPI application, 300 g/ha, read-out: Percent inhibition LOLMG",100%
same,inhibition at 900 g/ha,"LOLMG (annual ryegrass); Lolium multiflorum, weed, PPI application, 900 g/ha, read-out: Percent inhibition LOLMG",100%
same,"PPI activity GR80, LOLMG",LOLMG (annual ryegrass); [6],300 g/ha
same,inhibition at 10 g/ha,"XANST (cocklebur); Xanthium strumarium, 10 g/ha, read-out: Percent inhibition XANST",0%
same,inhibition at 30 g/ha,"XANST (cocklebur); Xanthium strumarium, 30 g/ha, read-out: Percent inhibition XANST",0%
same,inhibition at 100 g/ha,"XANST (cocklebur); Xanthium strumarium, 100 g/ha, read-out: Percent inhibition XANST",0%
same,inhibition at 300 g/ha,"XANST (cocklebur); Xanthium strumarium, 300 g/ha, read-out: Percent inhibition XANST",0%
same,inhibition at 900 g/ha,"XANST (cocklebur); Xanthium strumarium, 900 g/ha, read-out: Percent inhibition XANST",0%
same,inhibition at 10 g/ha,"[1]; Panicum miliaceum, PPI application, 10 g/ha, read-out: Percent inhibition PANMI",0%
same,inhibition at 30 g/ha,"[1]; Panicum miliaceum, PPI application, 30 g/ha, read-out: Percent inhibition PANMI",60%
same,inhibition at 100 g/ha,"[1]; Panicum miliaceum, PPI application, 100 g/ha, read-out: Percent inhibition PANMI",99%
same,inhibition at 300 g/ha,"[1]; Panicum miliaceum, PPI application, 300 g/ha, read-out: Percent inhibition PANMI",100%
same,inhibition at 900 g/ha,"[1]; Panicum miliaceum, PPI application, 900 g/ha, read-out: Percent inhibition PANMI",100%
same,"PPI activity GR80, PANMI",[1]; [6],30 g/ha
same,inhibition at 30 g/ha,"wheat (TRZAW); Triticum aestivum, 30 g/ha, read-out: Percent inhibition TRZAW",0%
same,inhibition at 100 g/ha,"wheat (TRZAW); Triticum aestivum, 100 g/ha, read-out: Percent inhibition TRZAW",0%
same,inhibition at 300 g/ha,"wheat (TRZAW); Triticum aestivum, 300 g/ha, read-out: Percent inhibition TRZAW",10%
same,inhibition at 900 g/ha,"wheat (TRZAW); Triticum aestivum, 900 g/ha, read-out: Percent inhibition TRZAW",30%
same,"Pre-emergence activity GR80, LAMPU",[2],30 g/ha
same,inhibition at 10 g/ha,"AMARE (redroot pigweed); Amaranthus retroflexus, PPI application, 10 g/ha, read-out: Percent inhibition AMARE",0%
same,inhibition at 30 g/ha,"AMARE (redroot pigweed); Amaranthus retroflexus, PPI application, 30 g/ha, read-out: Percent inhibition AMARE",60%
same,inhibition at 100 g/ha,"AMARE (redroot pigweed); Amaranthus retroflexus, PPI application, 100 g/ha, read-out: Percent inhibition AMARE",80%
same,inhibition at 300 g/ha,"AMARE (redroot pigweed); Amaranthus retroflexus, PPI application, 300 g/ha, read-out: Percent inhibition AMARE",100%
same,inhibition at 900 g/ha,"AMARE (redroot pigweed); Amaranthus retroflexus, PPI application, 900 g/ha, read-out: Percent inhibition AMARE",100%
same,PPI activity (GR80) AMARE,AMARE (redroot pigweed); [7],30 g/ha
same,Pre-emergence activity (GR80) AGSST,[3],30 g/ha
same,"Pre-emergence activity GR80, SINAR",SINAR (wild mustard),100 g/ha
same,PPI activity (GR80) CHEAL,[4]; [7],300 g/ha
same,inhibition at 30 g/ha,"[5]; Aegilops cylindrica, weed, PPI application, 30 g/ha, read-out: Percent inhibition AEGCY",0%
same,inhibition at 100 g/ha,"[5]; Aegilops cylindrica, weed, PPI application, 100 g/ha, read-out: Percent inhibition AEGCY",0%
same,inhibition at 300 g/ha,"[5]; Aegilops cylindrica, weed, PPI application, 300 g/ha, read-out: Percent inhibition AEGCY",40%
same,inhibition at 900 g/ha,"[5]; Aegilops cylindrica, weed, PPI application, 900 g/ha, read-out: Percent inhibition AEGCY",60%
same,"PPI activity GR80, AEGCY",[5]; [6],[empty]
CCN(CC)C(=O)n1cnc(S(=O)(=O)C(F)(F)F)n1 [Example 2],Pre-emergence activity (GR80) SETVI,SETVI (green foxtail),30 g/ha
same,Percent inhibition LOLMG,"LOLMG (annual ryegrass); weed, PPI application, 30 g/ha",40%
same,Percent inhibition LOLMG,LOLMG (annual ryegrass); [8],99%
same,Percent inhibition LOLMG,LOLMG (annual ryegrass); [9],100%
same,Percent inhibition LOLMG,LOLMG (annual ryegrass); [10],100%
same,Percent inhibition XANST,XANST (cocklebur); 30 g/ha,0%
same,Percent inhibition XANST,XANST (cocklebur); 100 g/ha,0%
same,Percent inhibition XANST,XANST (cocklebur); 300 g/ha,0%
same,Percent inhibition XANST,XANST (cocklebur); 900 g/ha,0%
same,Percent inhibition PANMI,"[1]; PPI application, 30 g/ha",20%
same,Percent inhibition PANMI,"[1]; PPI application, 100 g/ha",80%
same,Percent inhibition PANMI,"[1]; PPI application, 300 g/ha",100%
same,Percent inhibition TRZAW,wheat (TRZAW); 30 g/ha,0%
same,Percent inhibition TRZAW,wheat (TRZAW); 100 g/ha,0%
same,Percent inhibition TRZAW,wheat (TRZAW); 300 g/ha,30%
same,Percent inhibition TRZAW,wheat (TRZAW); 900 g/ha,30%
same,"Pre-emergence activity GR80, LAMPU",[2],10 g/ha
same,Percent inhibition AMARE,"AMARE (redroot pigweed); PPI application, 30 g/ha",100%
same,Percent inhibition AMARE,"AMARE (redroot pigweed); PPI application, 100 g/ha",95%
same,Percent inhibition AMARE,"AMARE (redroot pigweed); PPI application, 300 g/ha",100%
same,Percent inhibition AMARE,"AMARE (redroot pigweed); PPI application, 900 g/ha",100%
same,Pre-emergence activity (GR80) AGSST,[3],30 g/ha
same,"Pre-emergence activity GR80, SINAR",SINAR (wild mustard),30 g/ha
same,Percent inhibition CHEAL,[4]; 30 g/ha,90%
same,Percent inhibition CHEAL,[4]; 100 g/ha,95%
same,Percent inhibition CHEAL,[4]; 300 g/ha,100%
same,Percent inhibition CHEAL,[4]; 900 g/ha,100%
same,Percent inhibition AEGCY,"[5]; weed, PPI application, 30 g/ha",0%
same,Percent inhibition AEGCY,[5]; [8],20%
same,Percent inhibition AEGCY,[5]; [9],20%
same,Percent inhibition AEGCY,[5]; [10],70%
CCN(CC)C(=O)n1cnc(S(=O)(=O)C(F)(F)Cl)n1 [Example 3],Pre-emergence activity (GR80) SETVI,SETVI (green foxtail),100 g/ha
same,Percent inhibition LOLMG,"LOLMG (annual ryegrass); weed, PPI application, 30 g/ha",40%
same,Percent inhibition LOLMG,LOLMG (annual ryegrass); [8],100%
same,Percent inhibition LOLMG,LOLMG (annual ryegrass); [9],100%
same,Percent inhibition LOLMG,LOLMG (annual ryegrass); [10],100%
same,Percent inhibition XANST,XANST (cocklebur); 30 g/ha,0%
same,Percent inhibition XANST,XANST (cocklebur); 100 g/ha,0%
same,Percent inhibition XANST,XANST (cocklebur); 300 g/ha,0%
same,Percent inhibition XANST,XANST (cocklebur); 900 g/ha,60%
same,Percent inhibition PANMI,"[1]; PPI application, 30 g/ha",100%
same,Percent inhibition PANMI,"[1]; PPI application, 100 g/ha",100%
same,Percent inhibition PANMI,"[1]; PPI application, 300 g/ha",100%
same,Percent inhibition PANMI,"[1]; PPI application, 900 g/ha",100%
same,Percent inhibition TRZAW,wheat (TRZAW); 30 g/ha,0%
same,Percent inhibition TRZAW,wheat (TRZAW); 100 g/ha,0%
same,Percent inhibition TRZAW,wheat (TRZAW); 300 g/ha,20%
same,Percent inhibition TRZAW,wheat (TRZAW); 900 g/ha,40%
same,"Pre-emergence activity GR80, LAMPU",[2],100 g/ha
same,Percent inhibition AMARE,"AMARE (redroot pigweed); PPI application, 30 g/ha",90%
same,Percent inhibition AMARE,"AMARE (redroot pigweed); PPI application, 100 g/ha",100%
same,Percent inhibition AMARE,"AMARE (redroot pigweed); PPI application, 300 g/ha",100%
same,Percent inhibition AMARE,"AMARE (redroot pigweed); PPI application, 900 g/ha",100%
same,Pre-emergence activity (GR80) AGSST,[3],30 g/ha
same,"Pre-emergence activity GR80, SINAR",SINAR (wild mustard),300 g/ha
same,Percent inhibition CHEAL,[4]; 30 g/ha,80%
same,Percent inhibition CHEAL,[4]; 100 g/ha,99%
same,Percent inhibition CHEAL,[4]; 300 g/ha,100%
same,Percent inhibition CHEAL,[4]; 900 g/ha,100%
same,Percent inhibition AEGCY,"[5]; weed, PPI application, 30 g/ha",0%
same,Percent inhibition AEGCY,[5]; [8],50%
same,Percent inhibition AEGCY,[5]; [9],40%
same,Percent inhibition AEGCY,[5]; [10],90%

# From patent US6461997B1, “Triazole sulfones having herbicidal activity” (Monsanto Technology LLC, priority 1999, dated 2002)
